Experimental data as given in US9409983B2, “Methods and compositions involving PBEF inhibitors for lung inflammation conditions and diseases” (The Board of Trustess of the University of Illinois, priority 2009, dated 2016).

Experiments:
C57BL/6 mice [1] = experiment: Lung RNA microarray analysis (SAM dysregulated genes) with RT-PCR and BAL ELISA validation; type: in vivo, mouse
Experimental: Total lung RNA was isolated as described previously (Nonas et al., 2007). Affymetrix Mouse430_2 arrays (Affymetrix Inc., Santa Clara, Calif.) were utilized. Chip quality (Li and Wong, 2001) and ‘present’ or ‘absent’ expression calls were determined by GeneChip® Operating Software (GCOS) (GSE9368-rhPBEF, GSE9314-PBEF^+/−). Intensities and normalization of probe sets were calculated by Bioconductor software (GCRMA package) (Team RDC, 2005). To identify differentially-expressed genes, pairwise comparisons were conducted using Significance Analysis of Microarrays (SAM) as previously described (Nonas et al., 2007). Gene filtering parameters and results are summarized in Supplementary Table E2. Differentially-expressed genes displaying>2 fold changes are referred to as “dysregulated genes”.
Dysregulated gene functional profiles were analyzed using Onto-Express with the number of genes in each GO biological process category (Wu et al., 2004) compared with all genes on the […] chip to determine the significance of the GO category (Consortium, 2006). Ingenuity Pathway Analysis (IPA) software (containing individually modeled relationships between gene objects e.g. genes, mRNAs, proteins) was utilized to dynamically generate significant regulatory and signaling networks or pathways. The significance of a canonical pathway is controlled by the p-value calculated using the right-tailed Fisher Exact Test for 2×2 contingency tables. (See Supplemental Methods).
Lung total RNA was isolated from whole rodent lung tissue for microarray experiment as we have described previously (9) using the Affymetrix GeneChip platform and Expression Analysis Manual protocols (Affymetrix Inc., Santa Clara, Calif.). The signal intensity fluorescent images produced during Affymetrix GeneChip Mouse430_2 Array hybridizations were scanned using the Hewlett-Packard GeneArray Scanner G2500A. The ‘Present’ or ‘Absent’ calls of the probe sets in the expression chips were determined by GCOS (GeneChip® Operating Software) software. The microarray data have been submitted to the National Center for Biotechnology Information (NCBI)'s Gene Expression Omnibus repository (GSE9368 for rhPBEF study and GSE9314 for PBEF^+/− study). Chip quality (RNA degradation, cDNA synthesis, hybridization, chip washing, scanning) was evaluated with GCOS, dChip (Li and Wong, 2001) and Bioconductor ‘affy’ packages. All RNA samples and chips adopted in current study passed the quality criteria (data not shown). The intensities of probe sets were calculated by the GC Robust Multichip Average (GCRMA) package of Bioconductor software for normalization (Team RDC, 2005). To identify differentially-expressed genes, pairwise comparisons were conducted using Significance Analysis of Microarrays (SAM) (see the SAM online manual for detailed explanations of the blocking approach, www-stat.stanford.edu/˜tibs/SAM) as we have previously described (Nonas et al., 2007). Only probe sets present (determined by Affy ‘P’-call) in three replicates of at least one group with mean intensity above 100 were used for further data mining. The gene filtering parameters and results were summarized in Supplementary Table E2. […] For probe sets representing the same Entrez Gene or UniGene ID, only the probe set with lowest FDR or highest fold changes was included in the gene list.
Dysregulated genes were uploaded into the IPA software (http://www.ingenuity.com), a web-delivered application which utilizes the Ingenuity Pathways Knowledge Base (IPKB) containing a robust number of individually modeled relationships between gene objects (e.g. genes, mRNAs, proteins), in order to dynamically generate significant regulatory and signaling networks or pathways. […]

C57BL/6 mice [2] = experiment: as above; type: in vivo, mouse; remark: listed apart in the source
[3] = rhPBEF vs. Control, SAM, fold change 2
[4] = VILIa-rhPBEF vs. Control, SAM, fold change 2
[5] = VILIa-rhPBEF vs. VILIa, SAM, fold change 2

rhPBEF: Recombinant human soluble PBEF/visfatin, a 52 kDa protein containing 465 amino acid residues, purchased from PeproTech
dysregulated genes in the NFκB pathway (C57BL/6 mice [1]; VILIa-rhPBEF combined exposure, Ingenuity Pathway Analysis): 21
CxCL1 (KC) DNA microarray, average fold change increase over control (C57BL/6 mice [1]; rhPBEF): 510 fold change
Map3k8 DNA microarray, average fold change increase over control (C57BL/6 mice [1]; rhPBEF): 3 fold change
TNF-α DNA microarray, average fold change increase over control (C57BL/6 mice [1]; rhPBEF): 23 fold change
BCL3 DNA microarray, average fold change increase over control (C57BL/6 mice [1]; rhPBEF VILIa): 11 fold change
CxCL1 (KC) DNA microarray, average fold change increase over control (C57BL/6 mice [1]; rhPBEF VILIa): 589 fold change
CxCL2 (MIP2α) DNA microarray, average fold change increase over control (C57BL/6 mice [1]; rhPBEF VILIa): 2128 fold change
MMP9 DNA microarray, average fold change increase over control (C57BL/6 mice [1]; rhPBEF VILIa): 13 fold change
Unique Down (C57BL/6 mice [1]; [3]): 118
Significant probe sets (C57BL/6 mice [2]; [4]): 836
Unique Down (C57BL/6 mice [2]; [4]): 258
Unique Up (C57BL/6 mice [2]; [4]): 432
Unique gene (dysregulated genes) (C57BL/6 mice [2]; [4]): 690
Significant probe sets (C57BL/6 mice [2]; [5]): 82
Unique Down (C57BL/6 mice [2]; [5]): 0
Unique Up (C57BL/6 mice [2]; [5]): 65
Unique gene (differentially expressed genes) (C57BL/6 mice [2]; [5]): 65
BCL3 DNA microarray, average fold change increase over control (C57BL/6 mice [2]; rhPBEF): 7 fold change
BCL3 RNA (RT-PCR), average fold change increase over control (C57BL/6 mice [2]; rhPBEF): 4 fold change
CxCL1 (KC) Protein (BAL levels by ELISA), average fold change increase over control (C57BL/6 mice [2]; rhPBEF): 43 fold change
CxCL1 (KC) RNA (RT-PCR), average fold change increase over control (C57BL/6 mice [2]; rhPBEF): 146 fold change
CxCL2 (MIP2α) DNA microarray, average fold change increase over control (C57BL/6 mice [2]; rhPBEF): 2290 fold change
CxCL2 (MIP2α) Protein (BAL levels by ELISA), average fold change increase over control (C57BL/6 mice [2]; rhPBEF): 115 fold change
CxCL2 (MIP2α) RNA (RT-PCR), average fold change increase over control (C57BL/6 mice [2]; rhPBEF): 613 fold change
IL-1-β DNA microarray, average fold change increase over control (C57BL/6 mice [2]; rhPBEF): 70 fold change
IL-1-β Protein (BAL levels by ELISA), average fold change increase over control (C57BL/6 mice [2]; rhPBEF): 3 fold change
IL-6 DNA microarray, average fold change increase over control (C57BL/6 mice [2]; rhPBEF): 240 fold change
IL-6 Protein (BAL levels by ELISA), average fold change increase over control (C57BL/6 mice [2]; rhPBEF): 9 fold change
MMP9 DNA microarray, average fold change increase over control (C57BL/6 mice [2]; rhPBEF): 16 fold change
MMP9 RNA (RT-PCR), average fold change increase over control (C57BL/6 mice [2]; rhPBEF): 16 fold change
Map3k8 RNA (RT-PCR), average fold change increase over control (C57BL/6 mice [2]; rhPBEF): 1 fold change
TNF-α Protein (BAL levels by ELISA), average fold change increase over control (C57BL/6 mice [2]; rhPBEF): 43 fold change
BCL3 RNA (RT-PCR), average fold change increase over control (C57BL/6 mice [2]; rhPBEF VILIa): 10 fold change
CxCL1 (KC) Protein (BAL levels by ELISA), average fold change increase over control (C57BL/6 mice [2]; rhPBEF VILIa): 45 fold change
CxCL1 (KC) RNA (RT-PCR), average fold change increase over control (C57BL/6 mice [2]; rhPBEF VILIa): 148 fold change
CxCL2 (MIP2α) Protein (BAL levels by ELISA), average fold change increase over control (C57BL/6 mice [2]; rhPBEF VILIa): 196 fold change
CxCL2 (MIP2α) RNA (RT-PCR), average fold change increase over control (C57BL/6 mice [2]; rhPBEF VILIa): 1479 fold change
IL-1-β DNA microarray, average fold change increase over control (C57BL/6 mice [2]; rhPBEF VILIa): 87 fold change
IL-1-β Protein (BAL levels by ELISA), average fold change increase over control (C57BL/6 mice [2]; rhPBEF VILIa): 3 fold change
IL-6 DNA microarray, average fold change increase over control (C57BL/6 mice [2]; rhPBEF VILIa): 900 fold change
IL-6 Protein (BAL levels by ELISA), average fold change increase over control (C57BL/6 mice [2]; rhPBEF VILIa): 27 fold change
MMP9 RNA (RT-PCR), average fold change increase over control (C57BL/6 mice [2]; rhPBEF VILIa): 1 fold change
Map3k8 DNA microarray, average fold change increase over control (C57BL/6 mice [2]; rhPBEF VILIa): 4 fold change
Map3k8 RNA (RT-PCR), average fold change increase over control (C57BL/6 mice [2]; rhPBEF VILIa): 2 fold change
TNF-α DNA microarray, average fold change increase over control (C57BL/6 mice [2]; rhPBEF VILIa): 23 fold change
TNF-α Protein (BAL levels by ELISA), average fold change increase over control (C57BL/6 mice [2]; rhPBEF VILIa): 45 fold change
Significant probe sets (C57BL/6 mice [2]; [3]): 613
Unique Up (C57BL/6 mice [2]; [3]): 375
Unique gene (dysregulated genes) (C57BL/6 mice [2]; [3]): 493
